{"source": "patent US20240216312A1", "about": "“PPAR-AGONISTS FOR USE IN THE TREATMENT OF LIVER FAILURE” (Genfit, priority 2021, published 2024)", "key": {"[1]": {"system": "LPS/GaIN acute liver failure, C57BL/6J mice", "experiment": "LPS/GalN model of acute liver failure in mice, hepatic gene expression, serum cytokines and albumin", "type": "in vivo, mouse", "details": "3 mg/kg/day oral 3 days before LPS/GaIN, 4 h after injection"}, "HepG2 cells": {"system": "HepG2 cells", "experiment": "Staurosporin-induced apoptosis in HepG2 cells, caspase 3/7 activity", "type": "cell-based, human", "details": "16 h pre-treatment, then 10 μM staurosporin 4 h", "experimental": "In order to evaluate the effect of the compounds on human hepatocytes that undergo a cellular stress induced by staurosporin, the human hepatoblastoma-derived HepG2 cell line (ECACC, #85011430, Sigma-Aldrich) was cultured in high-glucose DMEM medium (#41965, Gibco, France) supplemented with 10% of fetal bovine serum (FBS, #10270, Gibco), 1% penicillin/streptomycin (#15140, Gibco), 1% sodium pyruvate (#11360, Gibco) and 1% MEM non-essential amino acids (#11140, Gibco) in a 5% CO2 incubator at 37° C.\nTo evaluate caspase 3/7 activity, which is a surrogate marker of apoptosis, 1.5×10^4 cells were plated in a 384-well plate (#781080, Greiner, France). After cell adherence (8 hours), cells were serum starved for 16 h in the presence of 0.3 μM of compounds or vehicle. Cpd.1 was also used at 3 and 10 μM. Thereafter, cells were treated with 10 μM staurosporin (#569397, Sigma-Aldrich, Germany) supplemented with compound for additional 4 hours before cell lysis and caspase activity measurement.\nCaspase 3/7 activity was measured using Caspase Glow™ 3/7 assay (#G8093, Promega, USA). Luminescence was measured using a Spark microplate reader (#30086376, Tecan, USA). The amount of luminescence (RLU) directly correlates with caspase 3/7 activity."}, "[2]": {"system": "LPS-induced endotoxemia, Sprague Dawley rats", "experiment": "LPS-induced endotoxemia in rats, hepatic markers and serum TNFα", "type": "in vivo", "details": "rat, 3 mg/kg/day oral 3 days before LPS, 3 h after LPS"}, "[3]": {"system": "CLP induced polymicrobial sepsis, C57BL6J mice", "experiment": "Cecal ligation and puncture (CLP) sepsis model in mice, survival", "type": "in vivo", "details": "mouse CLP", "experimental": "This study aims to investigate the efficacy of Cpd.1 in cecal ligation and puncture (CLP) model in C57BL6J (BL6) male mice. The efficacy of the test compound was evaluated based on the survival rate of the animals within the study period.\nC57BL6J male mice (supplier Janvier—France) at 9 weeks of age and weighing 23-25 g on arrival were anesthetized with 250 μL of xylazine/ketamine solution (20 mg/100 g body weight) by intraperitoneal route. A 1-1.5 cm abdominal midline incision was made, and the caecum was located and tightly ligated at half the distance between distal pole and the base of the cecum with 4-0 silk suture (mild grade). The caecum was punctured through-and-through once with a 21-gauge needle from mesenteric toward antimesenteric direction after medium ligation. A small amount of stool was extruded to ensure that the wounds were patent. Then the cecum was replaced in its original position within the abdomen, which was closed with sutures and wound clips. Mice were followed for body weight evolution and mortality rate until […].\nCpd.1 or vehicle (Labrafil M 1944 CS, #3063, Gattefossé) was administered at 0.3 mg/kg, p.o. for three days before CLP surgery. The day of CLP (day 0), Cpd.1 was administrated 1 h before surgery and pursued daily until day 6. Experiment was terminated at day 7. […]\nBody weight and survival rate were measured for 7 days."}, "[4]": {"system": "LPS-induced endotoxemia, Sprague Dawley rats", "experiment": "LPS-induced endotoxemia in rats, serum IL6 and IL1β (ELISA)", "type": "in vivo", "details": "rat, 3 mg/kg/day oral 3 days before LPS 1 mg/kg i.p., 3 h after LPS", "experimental": "To evaluate the efficacy of the compounds to reduce the cytokine production in response to LPS-induced endotoxemia, male Sprague Dawley rats of 250-275 g from Janvier Labs (France) received a single intraperitoneal injection of 1 mg/kg LPS (Escherichia coli 0111:B4, #L2630, Sigma).\nCpd.1 (3 mg/kg/day) or vehicle (Labrafil M 1944 CS, #3063, Gattefossé) was administered by oral gavage during the 3 days before LPS injection. Rats were euthanized by cervical dislocation 3 hours after treatment. Blood samples were obtained from retro-orbital sinus puncture on animals slightly asleep with isoflurane (Isoflurin 1000 mg/g, GTIN 03760087152678, Axience) just before sacrifice.\nThe serum concentrations of interleukin-6 (IL6) and interleukin-1β (L1β) were determined by ELISA (SR6000B and SRLB00, respectively, R&D Systems)."}, "THP-1 cells": {"system": "THP-1 cells", "experiment": "PMA-induced differentiation of THP-1 monocytes into macrophages, TNFα and MCP1 secretion (HTRF)", "type": "cell-based", "details": "Homo sapiens, PMA-stimulated THP1 monocytes, 24 h", "experimental": "In order to test the efficacy of the compounds to inhibit the activation of the immune system, we used the human monocytic cell line THP-1 (Sigma). THP1 monocytes were cultured in RPMI 1640 with L-glutamine medium (#10-040-CV, Corning) supplemented with 10% fetal bovine serum (FBS, #10270, Gibco), 1% penicillin/streptomycin (#15140, Gibco) and 25 mM Hepes (H0887, Sigma) in a 5% C02 incubator at 37° C.\nTo evaluate the effect of the compounds on monocyte differentiation, 2.5×10^4 THP-1 cells were cultured for 24 h in a 384-well plate in FBS-deprived culture medium containing Cpd.1 in dose ranges, as well as 5 or 100 ng/mL phorbol 12-myristate 13-acetate (PMA, #P8139, Sigma), as indicated, to induce differentiation into macrophages.\n(§1) Tumor necrosis α (TNFα) and monocyte chemoattractant protein 1 (MCP1) were measured in cell supernatants by Homogeneous Time Resolved Fluorescence (HTRF, #62[…] for TNFα, and 62HCCL2PEG for MCP1, Cisbio). Fluorescence was measured with Infinite 500 (#30019337, Tecan) to determine the concentration of cytokines."}, "THP1 macrophages [5]": {"system": "THP1 macrophages", "experiment": "LPS (E. coli) activation of THP1 differentiated macrophages, TNFα and MCP1 secretion", "type": "cell-based, human", "details": "compound 24 h, then 100 ng/mL LPS E. coli 6 h", "experimental": "(§2) In order to test the efficacy of the compounds on macrophage activation and pro-inflammatory cytokine production, 2.5×10^4 THP-1 cells were cultured in a 384-well plate and treated with 100 ng/mL PMA (#P8139, Sigma) for 24 h to induce differentiation into macrophages.\nThen, medium was removed and FBS-deprived medium containing the compound of formula (I) was added for 24 h. Finally, THP1 macrophages were stimulated with 100 ng/mL LPS (E. coli 055:B5, #L4005, Sigma) for 6 h."}, "THP1 macrophages [6]": {"system": "THP1 macrophages", "experiment": "LPS (Klebsiella pneumoniae) activation of THP1 macrophages, MCP1 and TNFα secretion (HTRF)", "type": "cell-based, human", "experimental": "as §2\nThen, medium was removed and FBS-deprived medium containing 1 or 10 μM compound was added for 24 h. Finally, THP1 macrophages were stimulated for 6 h with 100 ng/mL LPS (Klebsiella pneumoniae, #L4268, Sigma-Aldrich).\nas §1, with “Monocyte chemoattractant protein 1 (MCP1) and Tumor” for “Tumor”, “(TNFα)” for “(TNFα) and monocyte chemoattractant protein 1 (MCP1)”\nIn order to evaluate the effect of the compounds according to the invention on LPS-induced cytokines production by macrophages, the percentage of inhibition over the vehicle condition were calculated for each compound at 1 and 10 μM."}}, "note": "Where two headings read alike, the source gives them in different places.", "data": [{"compound": "COC(CCc1cc(C)c(OC(C)(C)C(=O)O)c(C)c1)c1ccc(OC(F)(F)F)cc1", "note": "(stereo not shown) [Cpd. 1, 2-[4-(3-methoxy-3-(4-(trifluoromethoxy)phenyl)propyl)-2,6-dimethylphenoxy]-2-methylpropanoic acid]", "values": [{"measurement": "decrease of hepatic Ccl2 mRNA expression", "setting": "[1]; mouse liver", "value": 52, "unit": "%"}, {"measurement": "decrease of hepatic IL1b mRNA expression", "setting": "[1]; mouse liver", "value": 46, "unit": "%"}, {"measurement": "decrease of hepatic IL6 mRNA expression", "setting": "[1]; mouse liver", "value": 52, "unit": "%"}, {"measurement": "decrease of hepatic TNF mRNA expression", "setting": "[1]; mouse liver", "value": 40, "unit": "%"}, {"measurement": "reduction of hepatic Cd68 mRNA expression", "setting": "[1]; mouse liver", "value": 41, "unit": "%"}, {"measurement": "reduction of circulating CCL2 level compared to vehicle", "setting": "[1]; mouse serum", "value": 59, "unit": "%"}, {"measurement": "reduction of circulating IL6 level compared to vehicle", "setting": "[1]; mouse serum", "value": 62, "unit": "%"}, {"measurement": "reduction of circulating TNFα level compared to vehicle", "setting": "[1]; mouse serum", "value": 51, "unit": "%"}, {"measurement": "reduction of staurosporin-induced caspase activity", "setting": "HepG2 cells; 0.3 μM to 10 μM", "value": "dose-dependent manner"}, {"measurement": "inhibition at 0.3 µM", "setting": "HepG2 cells; Homo sapiens, HepG2, 0.3 μM, read-out: % Inhibition of caspase activity over mean Veh.", "value": 26, "unit": "%"}, {"measurement": "serum total bilirubin level compared to vehicle", "setting": "[2]", "value": "completely restored"}, {"measurement": "side effects after each administration", "setting": "[3]; 0.3 mg/kg p.o.", "value": "No side effect"}, {"measurement": "increase in survival rate compared to CLP+Vehicle group", "setting": "[3]; 0.3 mg/kg p.o. from 3 days before surgery, daily, Day 7", "value": 47, "unit": "%"}, {"measurement": "reduction of serum IL1β level", "setting": "[4]", "value": 31, "unit": "%"}, {"measurement": "reduction of serum IL6 level", "setting": "[4]", "value": 40, "unit": "%"}, {"measurement": "inhibition at 1 µM", "setting": "THP-1 cells; read-out: inhibition of MCP1 content in the supernatant", "value": "~50", "unit": "%"}, {"measurement": "inhibition at 1 µM", "setting": "THP-1 cells; read-out: inhibition of TNFα content in the supernatant", "value": "~50", "unit": "%"}, {"measurement": "reduction of TNFα secretion", "setting": "THP1 macrophages [5]", "value": "potent at reducing"}, {"measurement": "reduction of MCP1 secretion", "setting": "THP1 macrophages [5]; all doses tested", "value": "overpassing the untreated condition"}, {"measurement": "inhibition at 1 µM", "setting": "THP1 macrophages [6]; Homo sapiens, THP-1, 1 μM, 24 h, then LPS Klebsiella 6 h, read-out: % inhibition of MCP1 secretion over mean Veh.", "value": 108, "unit": "%"}, {"measurement": "inhibition at 10 µM", "setting": "THP1 macrophages [6]; Homo sapiens, THP-1, 10 μM, 24 h, then LPS Klebsiella 6 h, read-out: % inhibition of MCP1 secretion over mean Veh.", "value": 120, "unit": "%"}, {"measurement": "production of MCP1 induced by LPS Klebsiella", "setting": "THP1 macrophages [6]; THP1 macrophages, in words, concentration not given", "value": "overpassing the untreated condition"}]}]}
